Test results: PubChem BioAssay (NCI)
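Five compound concentrations were applied to cells in 96-well plates for 48 hours; endpoints were derived by simple linear interpolation of the resulting dose-response curve. TGI: concentration producing complete growth inhibition.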

Columns and labels:
Assay in all cases: DTP human tumour cell line panel, 48 h
[1] = system: NCI-H226 lung
[2] = system: SK-MEL-28 melanoma
[3] = system: HCC-2998 colon
[4] = system: M14 melanoma
[5] = system: MCF7 breast

N#CC1=C(N)OC(c2ccc([N+](=O)[O-])cc2)C1(C#N)C#N (stereo not given)
TGI [1]: 41.5 µM | TGI [2]: 26.9 µM | TGI [3]: 23.5 µM | TGI [4]: 38.9 µM | TGI [5]: 42.4 µM

O=C(NC1=NC2C=CC([N+](=O)[O-])=CC2S1)C(=O)Nn1c(=S)[nH]c2ccccc2c1=O (stereo not given)
TGI [1]: > 100 µM | TGI [2]: > 100 µM | TGI [3]: > 100 µM | TGI [4]: > 100 µM | TGI [5]: > 100 µM

CN(C)c1nc(NN)c2c(-c3ccccc3)c(-c3ccccc3)oc2n1
TGI [1]: > 100 µM | TGI [2]: > 100 µM | TGI [3]: > 100 µM | TGI [4]: > 100 µM | TGI [5]: > 100 µM

CCOC(=O)c1[nH]c2ccccc2c1C(=O)C[C@H](NC(=O)C(F)(F)F)C(=O)OC
TGI [1]: > 100 µM | TGI [2]: > 100 µM | TGI [3]: > 100 µM | TGI [4]: > 100 µM | TGI [5]: > 100 µM

O=S(CCCl)c1c2ccccc2nc2ccccc12 (stereo not given)
TGI [1]: > 100 µM | TGI [2]: > 100 µM | TGI [3]: > 100 µM | TGI [4]: > 100 µM | TGI [5]: > 100 µM

OC1CN2CCS[C@H]2C(O)C1O (stereo not given in full)
TGI [1]: > 100 µM | TGI [2]: > 100 µM | TGI [3]: > 100 µM | TGI [4]: > 100 µM

CC(NC(=O)OC(C)(C)C)C(=O)C(N)=O (stereo not given)
TGI [1]: > 100 µM | TGI [2]: > 100 µM | TGI [3]: > 100 µM | TGI [4]: > 100 µM | TGI [5]: > 100 µM

CC(C)NC(=O)OCCN=C1c2ccccc2CCc2ccccc21
TGI [1]: 60.5 µM | TGI [2]: 40.3 µM | TGI [3]: 39 µM | TGI [4]: 39.7 µM | TGI [5]: 57.5 µM

CC(=O)Oc1cc2c(cc1OC(C)=O)[C@H]1CC[C@]3(C)[C@@H](OC(C)=O)CC[C@H]3[C@@H]1CC2
TGI [2]: 19.7 µM | TGI [3]: 21.1 µM | TGI [4]: 21.1 µM | TGI [5]: 20.9 µM

O=[N+]([O-])c1cc(Cl)cc2cc(Cl)cnc12
TGI [1]: > 100 µM | TGI [2]: > 100 µM | TGI [3]: > 100 µM | TGI [4]: > 100 µM

O=C(/C=C/c1ccco1)CC(=O)/C=C/c1ccco1
TGI [2]: 17.5 µM | TGI [3]: 17.3 µM | TGI [4]: > 31.6 µM | TGI [5]: 19.2 µM

O=c1[nH]nc(Cc2ccc(Cl)cc2)n1/N=C\c1ccc(/C=N/n2c(Cc3ccc(Cl)cc3)n[nH]c2=O)cc1
TGI [1]: > 100 µM | TGI [2]: > 100 µM | TGI [4]: > 100 µM | TGI [5]: > 100 µM

Cc1cc(C)c2c(=O)n(CN3CCC(O)(c4ccccc4)CC3)sc2n1
TGI [1]: > 100 µM | TGI [2]: > 100 µM | TGI [3]: 57.3 µM | TGI [4]: > 100 µM | TGI [5]: > 100 µM

COc1cc2c(c3c1c(=O)c1ccccc1n3C)C=CC1(CCCCC1)O2
TGI [1]: > 10 µM | TGI [2]: > 10 µM | TGI [3]: > 10 µM | TGI [4]: 7.92 µM | TGI [5]: > 9.55 µM

COc1ccc(/C=C/C(=O)N[C@@H]2C(=O)N3[C@@H]2SC(C)(C)[C@@H]3C(=O)O)cc1
TGI [1]: > 100 µM | TGI [2]: > 100 µM | TGI [3]: > 100 µM | TGI [4]: > 100 µM | TGI [5]: > 100 µM

O=C(CCCl)NNC1=NCCN1
TGI [1]: > 100 µM | TGI [2]: > 100 µM | TGI [3]: > 100 µM | TGI [4]: > 100 µM | TGI [5]: > 100 µM

N/N=C1\CCCc2c1no[n+]2[O-]
TGI [1]: > 100 µM | TGI [2]: > 100 µM | TGI [3]: > 100 µM | TGI [4]: > 100 µM | TGI [5]: > 100 µM

CCOP(=O)(OCC)/C(C#N)=C/c1cccn1CC(C)C
TGI [1]: > 100 µM | TGI [2]: > 100 µM | TGI [3]: > 100 µM | TGI [4]: > 100 µM | TGI [5]: > 100 µM

CC(=O)OCC1OC(n2c(N)c(C#N)c(-c3ccc(C)cc3)c(C#N)c2=S)C(OC(C)=O)C(OC(C)=O)C1OC(C)=O (stereo not given)
TGI [1]: 20.1 µM | TGI [2]: > 100 µM | TGI [3]: 34 µM | TGI [4]: 30 µM | TGI [5]: 51.3 µM

NCCCN1CCN(CC(=O)O)CCN(CCCN)CCN(CC(=O)O)CC1
TGI [1]: > 100 µM | TGI [2]: > 100 µM | TGI [3]: > 100 µM | TGI [4]: > 100 µM | TGI [5]: > 100 µM

Cc1c2c(n(Cc3ccccn3)c1C)NN=C(C#N)S2(=O)=O
TGI [1]: > 100 µM | TGI [2]: > 100 µM | TGI [3]: > 100 µM | TGI [4]: > 100 µM | TGI [5]: > 100 µM

C=C1c2nc3ccccc3n2C=C(c2ccccc2)N1c1ccccc1
TGI [1]: > 100 µM | TGI [3]: 28.8 µM | TGI [4]: > 100 µM | TGI [5]: > 100 µM

COc1ccc2oc(C(=O)N3CC(CCl)c4ccc([N+](=O)[O-])cc43)cc2c1 (stereo not given)
TGI [1]: 36.8 µM | TGI [2]: > 100 µM | TGI [3]: > 100 µM | TGI [4]: > 100 µM

CN(CCCCN(C)CCc1ccc(Cl)c(Cl)c1)CCCCN1CCCC1
TGI [1]: 4.01 µM | TGI [2]: 1.06 µM | TGI [3]: 0.384 µM | TGI [4]: 2.16 µM | TGI [5]: 2.84 µM

O=c1[nH]nc(Cc2ccc(Cl)cc2)n1/N=C\CC/C=N\n1c(Cc2ccc(Cl)cc2)n[nH]c1=O
TGI [1]: > 71 µM | TGI [2]: 96.9 µM | TGI [3]: > 100 µM | TGI [4]: > 100 µM | TGI [5]: > 100 µM

CC(C)NCC(O)c1ccc(OCc2ccccc2)c(OCc2ccccc2)c1-c1ccccc1 (stereo not given)
TGI [1]: 4.28 µM | TGI [3]: 3.06 µM | TGI [5]: 3.22 µM

COc1ccccc1Cn1nc(OC)c2cc([N+](=O)[O-])ccc21
TGI [1]: > 100 µM | TGI [2]: > 100 µM | TGI [3]: > 100 µM | TGI [4]: > 100 µM | TGI [5]: > 100 µM

COc1ccc2[nH]c3c(c2c1)COc1ccccc1C3=O
TGI [1]: > 100 µM | TGI [2]: > 100 µM | TGI [3]: > 100 µM | TGI [4]: > 100 µM | TGI [5]: > 100 µM

O=c1ccn2n1CCCCC2
TGI [1]: > 100 µM | TGI [2]: > 100 µM | TGI [3]: > 100 µM | TGI [4]: > 100 µM

O=C(OC(=C(c1ccccc1)c1ccccc1)N1CCCC1=S)C(c1ccccc1)c1ccccc1
TGI [1]: > 10 µM | TGI [2]: > 10 µM | TGI [3]: > 10 µM | TGI [4]: > 10 µM | TGI [5]: > 10 µM

O=C(Cc1ccc(Cl)c(Cl)c1)N(CCc1ccc(Cl)c(Cl)c1)CCN1CCCC1
TGI [1]: 4.91 µM | TGI [2]: 2.99 µM | TGI [3]: 3.33 µM | TGI [4]: 3.56 µM | TGI [5]: 3.27 µM

CN(C1=NCCO1)c1cccc2c1CCCC2
TGI [1]: 6.14 µM | TGI [2]: > 10 µM | TGI [3]: > 10 µM | TGI [4]: 6.09 µM | TGI [5]: > 10 µM

Oc1c(C2=N[C@H]3CCCC[C@@H]3N2)ccc2ccccc12
TGI [1]: > 100 µM | TGI [2]: > 100 µM | TGI [3]: > 100 µM | TGI [4]: > 100 µM | TGI [5]: > 100 µM

CCOP(=O)(C=C=C(C)C)OCC
TGI [1]: > 100 µM | TGI [2]: > 100 µM | TGI [3]: > 100 µM | TGI [4]: > 100 µM | TGI [5]: > 100 µM

CN(C)c1ccc(/C=C(\NC(=O)c2ccccc2)C(=O)NC(CCC(=O)O)C(=O)O)cc1 (stereo not given)
TGI [1]: > 100 µM | TGI [2]: > 100 µM | TGI [3]: > 100 µM | TGI [4]: > 100 µM | TGI [5]: > 100 µM
